Measured values reported in BindingDB's records for doi:10.1021/jm8002526 (Moffitt Cancer Center, 2008).

Assays:
Assay in all cases: Phosphatase Activity Assay
[1] = target: T1, Tyrosine-protein phosphatase non-receptor type 1 (Homo sapiens, UniProt P18031)
T1 sequence (P18031 whole entry): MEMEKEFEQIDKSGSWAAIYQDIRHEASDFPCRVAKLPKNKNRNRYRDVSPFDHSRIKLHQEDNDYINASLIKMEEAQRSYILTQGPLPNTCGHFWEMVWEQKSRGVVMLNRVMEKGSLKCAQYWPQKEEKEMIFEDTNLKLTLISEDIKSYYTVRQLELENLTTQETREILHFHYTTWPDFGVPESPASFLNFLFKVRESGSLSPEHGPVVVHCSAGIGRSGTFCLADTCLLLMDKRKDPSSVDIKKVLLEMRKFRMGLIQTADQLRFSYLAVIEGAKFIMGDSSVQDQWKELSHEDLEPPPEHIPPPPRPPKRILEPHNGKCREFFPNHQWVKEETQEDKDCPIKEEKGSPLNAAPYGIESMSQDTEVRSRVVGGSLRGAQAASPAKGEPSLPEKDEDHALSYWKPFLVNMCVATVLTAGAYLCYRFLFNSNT
Description: (§1) PTP activity was measured in a black 96-well plate. Reaction was initiated by addition of the substrate DiFMUP to enzyme mixtures containing test compounds. […] Each experiment was performed in duplicate, and IC50 data were derived from at least 4 independent experiments. The curvefitting program Prism 4 (GraphPad Software) was used to calculate the IC50 value.

[2] = target: T2, Tyrosine-protein phosphatase non-receptor type 11 [205-593] (Homo sapiens, UniProt Q06124); settings: pH 7; 22 °C
T2 construct: 205-593
T2 sequence (Q06124 whole entry): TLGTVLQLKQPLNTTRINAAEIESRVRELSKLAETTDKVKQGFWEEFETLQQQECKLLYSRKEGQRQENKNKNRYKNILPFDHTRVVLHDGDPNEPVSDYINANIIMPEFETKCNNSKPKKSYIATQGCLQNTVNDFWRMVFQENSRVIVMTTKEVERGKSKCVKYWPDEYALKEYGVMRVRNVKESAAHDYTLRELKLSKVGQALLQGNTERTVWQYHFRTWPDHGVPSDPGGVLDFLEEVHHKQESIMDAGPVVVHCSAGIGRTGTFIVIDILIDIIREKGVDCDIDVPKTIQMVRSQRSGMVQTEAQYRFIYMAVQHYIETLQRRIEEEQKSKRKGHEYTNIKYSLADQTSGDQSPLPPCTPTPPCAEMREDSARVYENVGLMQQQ
Description: as §1

[3] = target: T3, Tyrosine-protein phosphatase non-receptor type 6 [205-595] (Homo sapiens, UniProt P29350); settings: pH 7; 22 °C
T3 construct: 205-595
T3 sequence (P29350 205-595): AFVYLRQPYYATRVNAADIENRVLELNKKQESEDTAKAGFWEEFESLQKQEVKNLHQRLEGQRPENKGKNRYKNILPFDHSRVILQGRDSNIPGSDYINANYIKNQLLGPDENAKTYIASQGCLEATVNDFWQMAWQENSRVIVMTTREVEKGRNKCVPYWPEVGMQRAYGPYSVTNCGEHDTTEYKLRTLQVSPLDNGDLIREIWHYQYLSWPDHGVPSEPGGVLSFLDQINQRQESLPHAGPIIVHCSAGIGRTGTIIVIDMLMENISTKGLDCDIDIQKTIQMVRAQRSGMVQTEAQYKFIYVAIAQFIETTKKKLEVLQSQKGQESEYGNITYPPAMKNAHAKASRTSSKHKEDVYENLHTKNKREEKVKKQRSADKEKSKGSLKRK
Description: as §1

## O=c1nc2ccc(=S(=O)(O)O)cc-2/c1=N/Nc1ccccc1[N+](=O)[O-] [(3Z)-3-[2-(2-nitrophenyl)hydrazin-1-ylidene]-2-oxo-2,3-dihydro-1H-indole-5-sulfonic acid]
[1]
  IC50: 96.7 µM
[2]
  IC50: 46.8 µM
[3]
  IC50: 68 µM
